Test results taken from BindingDB's records for doi:10.7270/Q2M32T6M (Vanderbilt Screening Center for GPCRs, Ion Channels and …, 2009).

What follows are compounds tested against T1, Solute carrier family 12 member 5 (Homo sapiens, UniProt Q9H2X9) (assay: KCC2 modulator potency by thallium flux, dose response, cell-based, HEK293 KCC2, FluoZin-2 fluorescence (AID 1736)). Conditions: not given.
T1 sequence (Q9H2X9 whole entry): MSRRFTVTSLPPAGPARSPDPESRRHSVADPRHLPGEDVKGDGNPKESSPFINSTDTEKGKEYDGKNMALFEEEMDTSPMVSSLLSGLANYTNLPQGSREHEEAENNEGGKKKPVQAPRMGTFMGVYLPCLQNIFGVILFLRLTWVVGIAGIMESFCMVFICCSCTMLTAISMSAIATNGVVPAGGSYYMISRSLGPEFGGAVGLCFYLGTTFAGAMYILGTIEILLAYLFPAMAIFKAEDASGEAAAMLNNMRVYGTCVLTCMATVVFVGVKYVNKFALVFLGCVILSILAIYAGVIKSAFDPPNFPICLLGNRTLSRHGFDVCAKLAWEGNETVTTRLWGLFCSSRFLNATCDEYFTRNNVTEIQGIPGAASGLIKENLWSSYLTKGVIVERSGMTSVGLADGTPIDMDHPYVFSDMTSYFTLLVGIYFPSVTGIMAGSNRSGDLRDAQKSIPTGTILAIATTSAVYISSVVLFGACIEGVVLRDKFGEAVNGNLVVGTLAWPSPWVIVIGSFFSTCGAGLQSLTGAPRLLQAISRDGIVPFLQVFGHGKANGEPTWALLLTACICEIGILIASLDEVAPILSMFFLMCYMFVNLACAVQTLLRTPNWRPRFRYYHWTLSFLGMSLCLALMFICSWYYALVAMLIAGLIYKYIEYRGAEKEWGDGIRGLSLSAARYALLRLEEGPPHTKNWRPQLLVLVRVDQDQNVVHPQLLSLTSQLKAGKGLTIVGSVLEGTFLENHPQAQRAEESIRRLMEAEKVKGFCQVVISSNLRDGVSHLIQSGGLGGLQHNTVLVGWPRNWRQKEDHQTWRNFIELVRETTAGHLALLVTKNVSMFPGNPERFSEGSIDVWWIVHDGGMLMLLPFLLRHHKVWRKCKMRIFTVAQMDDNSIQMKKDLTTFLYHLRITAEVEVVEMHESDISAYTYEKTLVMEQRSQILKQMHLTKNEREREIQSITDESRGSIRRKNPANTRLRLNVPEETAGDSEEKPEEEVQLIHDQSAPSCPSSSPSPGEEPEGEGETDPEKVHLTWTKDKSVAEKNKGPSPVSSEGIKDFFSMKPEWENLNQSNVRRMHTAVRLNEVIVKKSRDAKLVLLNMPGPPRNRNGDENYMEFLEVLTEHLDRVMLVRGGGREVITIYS

Point of comparison: `O=C(Cn1cnc2c(nnn2Cc2ccc(F)cc2)c1=O)NCc1ccc2c(c1)OCO2` [2-[3-(4-fluorobenzyl)-7-keto-triazolo[4,5-d]pyrimidin-6-yl]-N-piperonyl-acetamide], EC50 1.48 µM. Against it:
- COCCNS(=O)(=O)c1ccc(-c2ccc(Cl)cc2)cc1 [4'-chloro-N-(2-methoxyethyl)-4-biphenylsulfonamide] — 2.2-fold higher, 3.27 µM
- CC(C)CCNC(=O)COC(=O)/C=C/c1ccc2ccccc2n1 [(E)-3-(2-quinolinyl)-2-propenoic acid [2-(3-methylbutylamino)-2-oxoethyl] ester] — 1.6-fold higher, 2.3 µM
- O=C(CSc1nnc(Cc2ccccc2)o1)c1ccc(F)cc1 [1-(4-fluorophenyl)-2-[[5-(phenylmethyl)-1,3,4-oxadiazol-2-yl]sulfanyl]ethanone] — 1.9-fold higher, 2.86 µM
- N#Cc1nc(Cc2cccc3ccccc23)oc1N1CCOCC1 [5-(4-morpholinyl)-2-(1-naphthalenylmethyl)-4-oxazolecarbonitrile] — within 1.5-fold, 2.19 µM
- COc1cc(OC)c(C2=NOC(C(=O)N3CCc4ccccc4C3)C2)cc1Cl (stereo not given) [2-{[3-(5-chloro-2,4-dimethoxyphenyl)-4,5-dihydro-5-isoxazolyl]carbonyl}-1,2,3,4-tetrahydroisoquinoline] — 3.8-fold higher, 5.55 µM
- O=C(NCC1CCCO1)C(c1cccs1)N(C(=O)c1ccc(-c2ccccc2)[nH]1)C1CCCC1 (stereo not given) [5-Phenyl-1H-pyrrole-2-carboxylic acid cyclopentyl-{[(tetrahydro-furan-2-ylmethyl)-carbamoyl]-thiophen-2-yl-methyl}-amide] — 5.2-fold higher, 7.73 µM
- Cc1ccc2[nH]c3c(N4CCN(Cc5ccccc5)CC4)ncnc3c2c1 [8-methyl-4-[4-(phenylmethyl)-1-piperazinyl]-5H-pyrimido[5,4-b]indole] — 2.2-fold higher, 3.25 µM
- O=C(CNC(=O)/C(=C/c1ccccc1)NC(=O)c1ccc(Br)cc1)OCc1ccccc1 [(phenylmethyl) 2-[[(Z)-2-[(4-bromophenyl)carbonylamino]-3-phenyl-prop-2-enoyl]amino]ethanoate] — within 1.5-fold, 2 µM
- O=C(c1ccc(N2CCCCCC2)c([N+](=O)[O-])c1)N1CCc2ccccc21 [1-(4-azepan-1-yl-3-nitrobenzoyl)indoline] — 5.1-fold higher, 7.56 µM
- Cc1nonc1NC(=O)CSc1ccc(-c2ccccc2)nn1 [MLS000074514] — within 1.5-fold, 1.56 µM
- O=C(c1ccc(S(=O)(=O)c2cccc(Cl)c2)c([N+](=O)[O-])c1)N1CCN(c2ccccn2)CC1 [1-{4-[(3-chlorophenyl)sulfonyl]-3-nitrobenzoyl}-4-pyridin-2-ylpiperazine] — 1.7-fold higher, 2.55 µM
- O=C(NN1C(=O)/C(=C/c2nc3ccccc3[nH]2)SC1=S)c1ccccc1Cl [N-{5-[1-(1H-Benzoimidazol-2-yl)-meth-(Z)-ylidene]-4-oxo-2-thioxo-thiazolidin-3-yl}-2-chloro-benzamide] — 12-fold lower, 0.128 µM
- Cc1ccc(S(=O)(=O)N(CCC(=O)O)Cc2ccc(Cl)cc2)cc1 [3-[(4-chlorobenzyl)-tosyl-amino]propionic acid] — 1.8-fold higher, 2.69 µM
- Sc1nnc(Cc2c[nH]c3ccccc23)o1 [5-(1H-indol-3-ylmethyl)-1,3,4-oxadiazole-2(3H)-thione] — 3-fold higher, 4.45 µM
- O=C(NC(=S)Nc1cccc2cccnc12)c1cccs1 [MLS000688132] — 9.5-fold lower, 0.156 µM
- COc1ccc(NC(=S)NC(N)=Nc2nc(C)c3ccccc3n2)cc1 [(1E)-1-[amino-[(4-methyl-2-quinazolinyl)amino]methylidene]-3-(4-methoxyphenyl)thiourea] — 1.9-fold higher, 2.8 µM
- CCc1ccc(Nc2nnc(SCc3cc(=O)n4ccsc4n3)s2)cc1 [7-[[5-(4-ethylanilino)-1,3,4-thiadiazol-2-yl]sulfanylmethyl]-[1,3]thiazolo[3,2-a]pyrimidin-5-one] — 13-fold lower, 0.113 µM
- Cc1ccc(-c2noc(CN3CCN(Cc4ccccc4)CC3)n2)cc1 [1-benzyl-4-{[3-(4-methylphenyl)-1,2,4-oxadiazol-5-yl]methyl}piperazine] — 5.1-fold higher, 7.58 µM
- O=C(Nc1cccnc1)c1ccc(COc2ccccc2Br)o1 [5-[(2-bromanylphenoxy)methyl]-N-pyridin-3-yl-furan-2-carboxamide] — 1.6-fold higher, 2.34 µM
- Sc1nnc(CCc2ccc(Cl)cc2)o1 [5-[2-(4-chlorophenyl)ethyl]-1,3,4-oxadiazole-2-thiol] — within 1.5-fold, 1.57 µM
- Cn1c(C(=O)NCCN2CCN(c3ccccc3F)CC2)cc2c(=O)n(C)c3ccccc3c21 [MLS000118132] — within 1.5-fold, 1.74 µM
- O=[N+]([O-])c1ccc(CSc2nnc(SCc3ccccc3)s2)cc1 [2-(benzylthio)-5-[(4-nitrobenzyl)thio]-1,3,4-thiadiazole] — within 1.5-fold, 2.06 µM
- CCc1cc(C(=O)N2CCCC(CNC(=O)c3ccc(-c4ccccc4)cc3)C2)no1 (stereo not given) [MLS000731765] — 2-fold higher, 3 µM
- COc1ccc(-c2cc(CNC(=O)CN(C)Cc3ccccc3)on2)cc1 [2-[benzyl(methyl)amino]-N-[[3-(4-methoxyphenyl)-1,2-oxazol-5-yl]methyl]acetamide] — 17-fold higher, 24.6 µM
- O=C1Nc2ccc([N+](=O)[O-])cc2OC1CCN1CCN(Cc2ccccc2)CC1 (stereo not given) [2-[2-(4-benzylpiperazin-1-yl)ethyl]-7-nitro-4H-1,4-benzoxazin-3-one] — 2.8-fold higher, 4.2 µM
- O=C(NNc1nc(-c2ccccc2)cs1)c1ccccc1 [MLS000547345] — 140-fold lower, 0.0106 µM
- Cc1ccccc1OCC(=O)NNC(=O)CCN1C(=O)c2ccccc2C1=O [3-(1,3-dioxo-2-isoindolyl)-N'-[2-(2-methylphenoxy)-1-oxoethyl]propanehydrazide] — 290-fold higher, 432 µM
- S=C(NCCc1ccccc1)NN=Cc1cccc(Cl)c1Cl [1-[(2,3-dichlorobenzylidene)amino]-3-phenethyl-thiourea] — 15-fold higher, 22.7 µM
- Sc1nnc(C2(c3ccccc3)CCCC2)o1 [5-(1-phenylcyclopentyl)-3H-1,3,4-oxadiazole-2-thione] — within 1.5-fold, 1.31 µM
- N#Cc1nc(-c2ccco2)oc1N1CCN(Cc2ccccc2)CC1 [2-(2-furanyl)-5-[4-(phenylmethyl)-1-piperazinyl]-4-oxazolecarbonitrile] — 8.1-fold higher, 12 µM
- O=C(NC(=S)NNC(=O)c1cnccn1)c1ccc(Cl)cc1 [4-Chloro-N-[N'-(pyrazine-2-carbonyl)-hydrazinocarbothioyl]-benzamide] — 6.6-fold higher, 9.74 µM
- O=C(O)c1cc([N+](=O)[O-])ccc1NCc1ccccc1 [2-(benzylamino)-5-nitro-benzoic acid] — 1000-fold higher, 1490 µM
- CCOC(=O)c1cc2c(ccn2-c2ccc(F)cc2)n1CC(=O)NC(C)(C)C [4-[2-(tert-butylamino)-2-keto-ethyl]-1-(4-fluorophenyl)pyrrolo[3,2-b]pyrrole-5-carboxylic acid ethyl ester] — 13-fold higher, 19.2 µM
- CNC(=O)/C(=C\C=C\c1ccccc1)NC(=O)c1ccc([N+](=O)[O-])cc1 [MLS000570424] — 2.3-fold higher, 3.38 µM
- O=C(CC(Cc1ccccc1)c1ccco1)NC1CCCCC1 (stereo not given) [MLS000556612] — 2-fold higher, 3.03 µM
- Cc1ccc(NC(=O)c2ccccc2NS(=O)(=O)c2ccc(Cl)s2)cc1 [2-[(5-chloranylthiophen-2-yl)sulfonylamino]-N-(4-methylphenyl)benzamide] — within 1.5-fold, 1.07 µM

Same assay, conditions: inactive by the depositor's call

Point of comparison: `O=C(/C=C/c1cccs1)Nc1scc(-c2ccccc2)c1C(=O)O` [SMR000364116], EC50 29 µM. Against it:
- O=C(Nc1cc(S(=O)(=O)N2CCCCC2)ccc1Cl)c1ccccc1NS(=O)(=O)c1ccc(F)cc1 [MLS000707627] — 3.5-fold higher, 101 µM
- N#Cc1nc(COc2ccccc2F)oc1NCc1ccc(F)cc1 [2-[(2-fluoranylphenoxy)methyl]-5-[(4-fluorophenyl)methylamino]-1,3-oxazole-4-carbonitrile] — 16-fold lower, 1.86 µM
- N#C/C(=C\c1cn(-c2ccccc2)nc1-c1cccnc1)c1nnc2n1CCCCC2 [(E)-3-(1-phenyl-3-pyridin-3-yl-pyrazol-4-yl)-2-(6,7,8,9-tetrahydro-5H-[1,2,4]triazolo[4,3-a]azepin-3-yl)prop-2-enenitrile] — 20-fold lower, 1.45 µM
- O=C(Nc1ccn(Cc2ccccc2)n1)c1cccc(F)c1 [3-fluoranyl-N-[1-(phenylmethyl)pyrazol-3-yl]benzamide] — 6.4-fold lower, 4.51 µM
- CCc1ccc(-n2c(SCC(=O)c3ccc4c(c3)NC(=O)CO4)nc3ccccc3c2=O)cc1 [6-[2-[3-(4-ethylphenyl)-4-oxidanylidene-quinazolin-2-yl]sulfanylethanoyl]-4H-1,4-benzoxazin-3-one] — 1.8-fold higher, 51.8 µM
- Cc1ccccc1-c1nc(CS(=O)(=O)CC(=O)N2CCc3ccccc3C2)c(C)o1 [1-(3,4-dihydro-1H-isoquinolin-2-yl)-2-[[5-methyl-2-(2-methylphenyl)-1,3-oxazol-4-yl]methylsulfonyl]ethanone] — within 1.5-fold, 22.1 µM
- O=C(CSC1=NCCS1)Nc1nc(-c2ccccc2)cs1 [2-(4,5-dihydro-1,3-thiazol-2-ylsulfanyl)-N-(4-phenyl-1,3-thiazol-2-yl)acetamide] — 65-fold higher, 1890 µM
